In data set [1] the target is T1, Bovine Carbonic Anhydrase-II (bovine erythrocyte CA-II) (Bos taurus, UniProt P00921).
T1 construct: pure bovine erythrocyte CA-II; from tissue; host or cells: bovine erythrocytes
The experiment in a line: Bovine carbonic anhydrase-II inhibition, 4-nitrophenyl acetate spectrophotometric assay. In kind it is biochemical. As to conditions: 4-nitrophenyl acetate 0.7 mM, pH 7.4, 15 min preincubation; read-out: IC50 ± S.E.M. BCA-II. Here is the method:
(§1) Nineteen different analogues of benzamide sulfonamides were evaluated for carbonic anhydrase-II inhibition. The rate of catalyzed reaction was monitored by the amount of product formation by using the chromogenic substrate i.e., 4-nitrophenyl acetate.
4-Nitrophenyl acetate (4-NPA) is a colorless compound which is used as a substrate in carbonic anhydrase inhibition assay. The reaction involves the hydrolysis of 4-nitrophenyl acetate into […] and 4-nitrophenol a yellow colored compound. During this experiment, HEPES-tris buffer was used at 20 mM concentration with pH 7.4.
After 15 min of incubation of the enzyme with the test compound, the substrate was added to initiate the reaction. The reaction was carried out in triplicate with different concentrations of test compounds was used.
In this assay protocol, the reaction was performed by using a 96-well flat bottom plate.
The amount of product formation was measured at 400 nm for 30 min with 1 min interval, multiplate reader SPECTRA max 340 (Molecular Devices, CA, USA) was used to monitor the product formation.
The enzyme inhibitory activities were calculated using the following formula:
% Inhibition=100−(O.D of test/O.D of control)*100
(§2) Where test is the enzyme activity with sample and control is the enzyme activity without sample. The IC50 of the compounds were calculated by using EZ-Fit Enzyme Kinetic Program (Perrella Scientific Inc. Amhrest, U.S.A).

Data set [2] concerns the target T2, Human Carbonic Anhydrase-II (human erythrocyte CA-II) (Homo sapiens, UniProt P00918).
T2 construct: purified human erythrocyte CA-II; from tissue; host or cells: human erythrocytes
The experiment in a line: HCA-II inhibitory activity, 4-nitrophenyl acetate spectrophotometric assay. In kind it is biochemical. To be noted: 4-nitrophenyl acetate 0.7 mM, pH 7.4, 25° C., 15 min preincubation; read-out: IC50 ± S.E.M. HCA-II. The protocol: as §1
Hydrolysis of 4-NPA (a colorless compound): yields 4-nitrophenol and […]. The reaction is monitored by quantifying the formation of 4-nitrophenol, a yellow colored compound.
In successive experiments, HEPES-tris was used as a buffer for the reaction at final concentration of 20 mM, with 7.4 pH. The total reaction volume of 200 μL includes, 140 μL of the HEPES-tris, 20 μL of test compound diluted in DMSO (20 μL of DMSO as a control sample), 20 μL of purified human erythrocyte CA-II (0.1 mg/mL) prepared in deionized water and 20 μL of a solution of 4-NPA (0.7 mM diluted in ethanol). Adhesion of enzyme with the plastic-ware was avoided by the addition of bovine serum albumin (1 mg/mL).
The 20 μL of test compound was incubated with enzyme for a period of 15 min. The rate of product formation was monitored with the addition of 20 μL substrate prepared in ethanol at a final concentration of 0.7 mM 4-nitrophenyl acetate at 25° C. for a period of 30 min with regular interval of 1 min.
The assay was performed in triplicates by using 96-well flat bottom plate.
The enzyme inhibitory activities were calculated using the following formula: […]
as §2

Another data set is described as follows: MTT cytotoxicity assay. The class given is cell-based. To be noted: mouse, 3T3 mouse fibroblast cells, 3T3 cells, 50% growth inhibition, read-out: Cytotoxicity IC50 ± SD. The protocol:
Cytotoxicity studies were performed using a colorimetric assay that measures the reduction of 3-(4,5-dimethythiazol-2-yl)-2,5-diphenyl tetrazolium bromide (MTT) (yellow in color), by mitochondrial enzyme (i.e. succinate dehydrogenase). The MTT enters into the mitochondria of cell, where it is reduced to an insoluble formazan salt (purple in color). The extent of MTT reduction to formazan within cells was measured spectrophotometrically. As reduction of MTT can only occur in metabolically active cells the level of activity is actually a measure of the viability of the cells^22.
Mouse fibroblast cell line 3T3 was cultured in DMEM, supplemented with 5% of FBS, 100 IU/ml of penicillin and 100 μg/ml of streptomycin, and kept at 37° C. in 5% CO2 incubator. For the preparation of cell culture 100 μL/well of cell solution (5×10^4 cells/ml) was added into 96-well plate. The plate was incubated for overnight, and fresh medium was added after the removal of old medium. The test compounds were also added in different concentrations into the plate and plate was again incubated for 48 hrs. After the completion of this incubation period 200 μL MTT (0.5 mg/ml) was added and plate was again incubated for 4 hrs, after this final incubation 100 μL of DMSO was added to each well. The level of MTT reduction to formazan was evaluated by change in absorbance at 540 nm using a micro plate reader (Spectra Max plus, Molecular Devices, CA, USA).
In general terms: Tetrazolium assays rely on reduction of a dye to a coloured formazan, in cell work by metabolically active cells.

The target of data set [3] is T3, Bovine Carbonic Anhydrase-II (Bos taurus, UniProt P00921).
T3 construct: pure bovine erythrocyte CA-II; from tissue; host or cells: bovine erythrocytes
T3 sequence (P00921 whole entry): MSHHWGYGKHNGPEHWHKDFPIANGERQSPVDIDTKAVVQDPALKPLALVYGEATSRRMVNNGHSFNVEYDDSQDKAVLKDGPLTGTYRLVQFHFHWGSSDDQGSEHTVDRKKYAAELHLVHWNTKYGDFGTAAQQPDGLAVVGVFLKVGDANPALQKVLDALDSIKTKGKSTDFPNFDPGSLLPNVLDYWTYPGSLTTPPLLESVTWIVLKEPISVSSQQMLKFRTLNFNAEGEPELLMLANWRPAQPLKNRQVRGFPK
The experiment in a line: Kinetics studies (Lineweaver-Burk, Dixon plots) against Bovine Carbonic Anhydrase-II. Set-up: Vmax app: unit not given here. To be noted: for Type of Inhibition: Lineweaver-Burk / Dixon plots; for Vmax app: apparent Vmax with inhibitor (0.2-0.00625 μM); for Vmax: enzyme Vmax without inhibitor; for Ki: from secondary replots / Dixon plot, read-out: Ki. In kind it is biochemical. Here is the method:
FIG. 2B depicts the double reciprocal plot for Ki determination which is between Slope Vs Inhibitor Conc.
FIG. 3B depicts the double reciprocal plot for Ki determination which is between Slope Vs Inhibitor Conc.
Kinetics studies were performed for each analogue. […] The Grafit version 7.0 was used for the construction of Lineveawer-Burk plots and their secondary replots.

Molecules are shown by their SMILES.

T1 sequence (P00921 whole entry): as above

The IC50 is the concentration that gives 50% inhibition. On to `COc1cc(OC)cc(C(=O)NC(=S)Nc2ccc(S(N)(=O)=O)cc2)c1` [Compound 16, 3,5-Dimethoxy-N-(4-sulfamoylphenylcarbamothioyl)benzamide], for which the half-maximal inhibitory concentration (IC50) in data set [1] is 110 ± 5 nM. For the same compound, the IC50 in data set [2] was 230 ± 30 nM. Besides, the IC50 at 48 h in the data set “MTT cytotoxicity assay” was above 30000 nM. In data set [3], the “Type of Inhibition” value was “Noncompetitive”, the Vmax app is on record as 37.31, the Vmax was 72.46 (μM/L/min)^−1 and the Ki came out at 400 nM.

On to `NS(=O)(=O)c1ccc(NC(=S)NC(=O)C2CCCO2)cc1` (stereo not drawn) [Compound 17, N-(4-Sulfamoylphenylcarbamothioyl)tetrahydrofuran-2-carboxamide], for which, in data set [1], the IC50 was determined as 120 ± 20 nM. In data set [2], the IC50 came out at 270 ± 60 nM. Further, the concentration for half-maximal inhibition (IC50) at 48 h in the data set “MTT cytotoxicity assay” is above 30000 nM. In data set [3], the “Type of Inhibition” value is reported as “Mixed type”, the Vmax app is 26.88, the Vmax is 111.11 (μM/L/min)^−1 and the Ki turned out to be 59 nM.

As to `CCC(C(=O)NC(=S)Nc1ccc(S(N)(=O)=O)cc1)c1ccccc1` (stereo not drawn) [Compound 18, 2-Phenyl-N-(4-sulfamoylphenylcarbamothioyl)butanamide], in data set [1], the IC50 turned out to be 200 ± 1 nM. Besides, the half-maximal inhibitory concentration (IC50) in data set [2] was found to be 250 ± 10 nM. The IC50 at 48 h in “MTT cytotoxicity assay” was above 30000 nM. For the same compound, in data set [3], the “Type of Inhibition” value is “Mixed type”, the Vmax app worked out at 12.93, the Vmax is recorded as 42.73 (μM/L/min)^−1 and the Ki was 160 nM.

For `NS(=O)(=O)c1ccc(NC(=S)NC(=O)c2ccc(Cl)cc2Cl)cc1` [Compound 19, 2,4-Dichloro-N-(4-sulfamoylphenylcarbamothioyl)benzamide], the IC50 in data set [1] amounted to 60 ± 1 nM. Moreover, the concentration for half-maximal inhibition (IC50) in data set [2] amounted to 100 ± 40 nM. In addition, the IC50 at 48 h in “MTT cytotoxicity assay” was above 30000 nM. In addition, in data set [3], the Vmax app is 12.33, the Vmax is given as 79.36 (μM/L/min)^−1 and the Ki is 46 nM.
